Measured values reported in patent US6500845B1, “Lactam derivatives as immunomodulating agents” (Gruenenthal GmbH, priority 1994, dated 2002).
Values after ≈ are worked out from the molar mass of the structure shown.

Legend:
[1] = test system: TSST-1-induced release of IFN-γ, human mononuclear cells; assay type: cell-based
[2] = test system: LPS-induced TNF-α release, human mononuclear cells; test: LPS-induced TNF-α release from human mononuclear cells of the peripheral blood; assay type: cell-based; conditions: 20 hours incubation; for IC50: Homo sapiens, LPS-induced, read-out: IC50 (50% inhibition in the release of TNF-α); for Inhibition of TNF-α release in (%): concentration of 50 μ/ml, LPS 2.5 μg
Source text: The release of cytokines from human mononuclear cells of the peripheral blood, i.e. T-cells, B-cells and monocytes, can be studied in vitro after stimulation by lipopolysaccharide (LPS) or the toxic shock syndrome toxin-1 (TSST-1). LPS is a component of the bacterial cell wall and stimulates monocytes and macrophages. TSST-1 is a bacterial superantigen that stimulates T-cells as well as monocytes/macrophages. Superantigens bind to the Vβ chain of the T-cell receptor and to the MHC class II and thus simulate the recognition by a specific T-cell receptor of an antigen presented by the MHC class II. Activation of cells by LPS or TSST-1 induces the release of TNF-α, IFN-γ and other cytokines.
Mononuclear cells were prepared from the heparinized blood of at least three voluntary donors. For this purpose, 20 ml blood samples each were separated according to well known procedures using a Ficoll-Paque gradient. The cells were harvested and washed three times with a cell culture medium. This cell culture medium was composed of RPMI 1640 medium supplemented with 2 mM of glutamine (Life Technologies, Eggenstein, Germany), 10% fetal calf serum (Life Technologies), 50 μg/ml of streptomycin (Sigma, Deisenhofen, Germany), 50 IU/ml of penicillin (Sigma) and 100 μM of b-mercaptoethanol (Merck, Darmstadt, Germany). The mononuclear cells were suspended in 15 ml of cell culture medium and separated in 1 ml fractions in sterile 24-well incubation plates (Sigma). 1 μl of dimethylsulfoxide (DMSO) or 1 μl of a DMSO-solution containing 5 ′ by weight of a compound according to the invention was added to each of the 1 ml fractions. After incubation for 1 hour in a CO2-incubator (5% CO2, 90% humidity), 2.5 μg of LPS (from E. coli 0127: B8, Sigma) or 0.1 μg of TSST-1 (Sigma) were added to each of the fractions containing a compound according to the invention. Incubation of the cultures was continued for 20 hours. The concentrations of TNF-α and IFN-γ in the cell culture supernatants were determined with commercial ELISA-tests (Boehringer Mannheim, Germany; Endogen, Boston, Mass.).
The IC50 value is the concentration in μg/ml which produces a 50% inhibition in the release of TFN-α.

[3] = test system: IL-2 release in vivo (T-lymphocytes stimulated by staphylococcal enterotoxin B); set-up: species or system Balb/c mice; conditions: mouse; for ED40 (dosage reducing serum IL-2 concentrations by 40%): ip
[4] = test system: TSST-1-induced release of TNF-α, human mononuclear cells; assay type: cell-based

Compound | Effect on TSST-1-induced release of IFN-γ [1] | melting point | IC50 [2] | Inhibition of TNF-α release in (%) [2] | Maximum inhibition of serum IL-2 increase in % [3] | ED40 (dosage reducing serum IL-2 concentrations by 40%) [3] | Effect on TSST-1-induced release of TNF-α [4]
CC1(N2Cc3ccccc3C2=O)CCC(=O)NC1=O (racemic) [Example 2, 3-Methyl-3-(1-oxo-1,3-dihydro-isoindol-2-yl)-piperidine-2,6-dione] | enhanced compared to thalidomide | 231 to 232 °C | 10 µg/mL (≈ 38.7 µM) | 72 ± 8% | 56 ± 3% | 112 mg/kg i.p. | enhanced compared to thalidomide
CC1(N2Cc3ccccc3C2=O)CCC(=O)NC1=O (single isomer, unassigned; (-)) [Example 3 (−) enantiomer, (−)-3-Methyl-3-(1-oxo-1,3-dihydro-isoindol-2-yl)-piperidine-2,6-dione] | – | – | 8 µg/mL (≈ 31 µM) | 82 ± 5% | 54 ± 5% | 297 mg/kg i.p. | –
CC1(n2[se]c3ccccc3c2=O)CCCNC1=O (stereo not drawn) [Example 1, 2-(3-Methyl-2-oxo-piperidin-3-yl)-benzo[d]isoselenazol-3-one] | – | – | – | 93 ± 1% | 43 ± 5% | ca. 20^ mg/kg i.p. | –
CC1(n2sc3ccccc3c2=O)CCCNC1=O (stereo not drawn) [Example 4, 2-(3-methyl-2-oxo-piperidin-3-yl)-benzo[d]isothiazol-3-one] | – | – | – | 93 ± 9% | 52 ± 3% | <10 mg/kg i.p. | –
O=C1CCC(N2C(=O)c3ccccc3C2=O)C(=O)N1 (stereo not drawn) [Thalidomide, reference compound] | – | – | 50 µg/mL (≈ 194 µM) | 54 ± 7% | 56 ± 10% | 171 mg/kg i.p. | –
